For data set [1] the following is noted: Crystal; DSC.
A short description of data set [2]: Molar enthalpy of transition or fusion. The settings on record: Crystal; DSC.

The structures appear in SMILES notation. Numbers after ± are expanded uncertainties.

Regarding `N=C(N)NC(=N)NCCc1ccccc1` [N-(2-phenylethyl)imidodicarbonimidic diamide], in data set [1], the Triple point temperature stood at 446.85 ± 1.2 K. The “Molar enthalpy of transition or fusion” value in data set [2] stood at 2.78 ± 0.179 kcal/mol.

(Values after the NIST ThermoML archive (doi:10.1021/acs.jced.9b00844).)
